The values that follow come from patent publication US20210052580A1 (ST IP Holding AG, priority 2018, published 2021).

The test system of data set [1] is primary human gingival epithelial cells (HGEPp). Kind of data set: OxiSelect intracellular ROS assay, H2O2-treated cells. Format: cell-based.
Source text: 2. measure the effect of recrystallized oltipraz and formulated oltipraz on hydroxyl, peroxyl and other reactive oxygen species within HGEPp cells, using Cell Biolabs' OxiSelect™ Intracellular ROS Assay Kit. This assay employs the cell-permeable fluorogenic probe 2′,7′-dichlorodihydrofluorescin diacetate (DCFH-DA) which diffuses into cells and is deacetylated by cellular esterases to a nonfluorescent DCFH which is then rapidly oxidized to highly fluorescent 2′,7′-dichlorodihydrofluorescein (DCF) by ROS.
Prepared and mixed all reagents thoroughly before use. […] Once the HGEPp cells were cultured and ready on a microplate, the media was removed from all the wells and discarded. Washed the cells gently with DPBS 2-3 times. Removed the last wash and discarded it. • 3. Added 100 μL of 1×DCFH-DA/media solution to the cells. […] Fluorescence was read on a Fluorescence Plate Reader after 1 hour. […] Transferred 150 μL of the mixture to a fresh 24-well plate for fluorescence measurements at 530 nm. […]
Intracellular ROS was measured using a Spectramax M3 microplate reader.
Prepared and mixed all reagents thoroughly before use. […] Once the HGEPp cells were cultured and ready on a microplate, the media was removed from all the wells and discarded. […] Transferred 150 μL of the mixture to a fresh 24-well plate for fluorescence measurements at 530 nm.
Intracellular ROS was measured using a Spectramax M3 microplate reader. […]
For data set [2] the test system is unchanged. Kind of data set: TACS MTT cell viability assay, H2O2-induced oxidative stress. Format: cell-based.
Procedure: Pooled primary HGEPps were propagated in CnT-Prime epithelial culture medium provided by CellnTec on 100 mm petri dishes coated with 30 mg/ml Type I rat tail collagen (BD Biosciences) diluted in Dulbecco's phosphate-buffered saline (DPBS). […] The cells were harvested when they reached 70-90% confluency as observed by light microscopy. For routine cultivation, the medium was changed every 3 days. For both the cell viability and ROS assays, the cells from passages 3-7 were seeded at 5×10 3, 2.5×10 4, 5×10^4 cells/cm 2 density to grow cell monolayers in 24-well flat-bottomed tissue culture plates and acclimated overnight at 37° C.
Preparation of Dosing Solutions • 1. Recrystallized oltipraz was received as a powder from Supportive Therapeutics and a 100 mM DMSO stock was prepared. Further dilutions were prepared in DMSO from the 100 mM DMSO stock and each DMSO dilution was then added into 10 mL of Dulbecco's phosphate-buffered saline to arrive at final concentrations of 10, 50, and 100 μM. • 2. The Normal (Control) group contained saline with the same percentage of DMSO as the treated group. • 3. All dosing solutions contained 0.3% of DMSO which is well below the maximum tolerated DMSO percent of 0.8% for HGEPp cells. • 4. Formulated oltipraz crystals and control powder were received as a powder and a 500 mM DMSO stock solution was prepared for each powder. • 5.
Cell Survival Assay (TACS MTT Kit) • 1. Plate cell concentration was selected to be 6.25×10^5/ml to yield an OD absorbance within the linear portion of the control curve. • 2. Once the HGEPp cells were cultured and ready on the microplate, the media was removed from all the wells and discarded. The cells were washed gently with DPBS 2-3 times and the last wash removed and discarded. • 3. Added 10 ul of MTT reagent to each well. • 4. Incubated the plate for 6 hours at 37° C. Viewed the cells to confirm the appearance of intracellular precipitate using an inverted microscope. • 5. Added 100 ul of Detergent Reagent to all wells, including the control wells taking care not to shake the plates • 6. Left the plate covered in the dark at room temperature overnight. • 7. Removed the plate cover and measured the absorbance of the wells, including the blanks at 570 nm. • 8. Determined the average values from triplicate readings after subtracting the average value for the blanks.
HGEPp cells were exposed to different concentrations of H2O2 for 4 h to examine H2O2-induced oxidative stress. The cells were exposed to 0-0.6 mM H2O2 for 4 h and cell viability was evaluated using the TACS MTT Cell Proliferation Assay Kit. The percentage of cell survival was determined using the ratio of the optical density (OD) of the test sample to the OD of the control×100%. […] The data is mean+/−SD of 3 experiments in 6 replicate wells.
Normal control cells were cultured in DPBS containing 0.3% DMSO. Positive Control (PC): oxidative stressed group cells after treatment with 0.3 mM H2O2 for 4 h. […] The percentage of cell survival was determined by the ratio of the optical density (OD) of the test samples to the OD of the control×100%.
Pooled primary HGEPp's were propagated in CnT-Prime epithelial culture medium provided by CellnTec on 100 mm petri dishes coated with 30 mg/ml Type I rat tail collagen (BD Biosciences) diluted in Dulbecco's phosphate-buffered saline (DPBS). […] The cells were harvested when they reached 70-90% confluency as observed by light microscopy. For routine cultivation, the medium was changed every 3 days.
The subject of the next data set is rat cortical neurons. Format: cell-based. Particulars: MK801 10 μM. How it is done: The objective of the experiments in this Example was to explore the protective effects of three compounds in the neurotoxicity induced by oxygen glucose deprivation. A multiparametric cell-based protocol is used in this Example in order to determine the mechanisms of action. The assay was applied to “freshly isolated” rat cortical neurons cultured in 96-well-plates and exposed to the compounds at 100 μg/ml. Moreover, some cells were treated with the compounds in addition with atovaquone (100 μg/ml).
In vitro ischemic injury was induced in rat primary neuronal culture by oxygen-glucose deprivation for 2 hours. Neurons were incubated with the compounds during 1 hour eighteen hours prior to the OGD induction. MK801 10 μM was used as positive neuroprotection control. After the treatments, supernatants were collected for measuring extracellular LDH levels (plasma membrane integrity determination) and cells were simultaneously incubated with three optically compatible fluorescent dyes, and subsequently analyzed with BD Pathway 855 (Becton Dickinson). Cell parameters associated with nuclear morphology, mitochondrial damage and caspase 3/7 activation-indicative of prelethal cytotoxic effects and representative of different mechanism of toxicity-were measured by HCS at single cell level. Finally, cells were fixed and stained with beta III tubulin antibody for measuring the neurite outgrowth.
Primary cultures of cortical neurons were isolated from cerebral cortices of Sprague-Dawley rat foetuses at embryonic day 18. Brains were removed and after removing the meninges, the tissues were dissected under a binocular microscope. Neurons were enzymatically dispersed by trypsin 0.2% and DNAse […] digestion for 10 min at 37° C., plated in poly-L-lysine wells and incubated with B27 supplemented neurobasal medium.
Cortical neurons of 18 days old embryonic rats were plated in poly-l-lysine coated 96-well plates (30.000 cells per well). Cells were maintained in neurobasal medium supplemented with B-27 component for 5 days at 37° C. in a humidified 5% CO2 atmosphere. At day 5, cells were subjected to oxygen glucose deprivation (OGD) for 2 hours at 37° C. The cultures were placed in an aerobic chamber (Billops-Rothenberg) and incubated in neurobasal medium lacking glucose and B27 factor, and aerated with an anaerobic gas mixture (94.7% N2, 5% CO2, 0.3% O2) to remove residual oxygen. Control cultures were kept in the original neurobasal medium but were submitted to the anaerobic conditions. At the end of the OGD conditions, the cells were removed from the anaerobic chamber, the OGD medium was replaced with neurobasal medium containing glucose, and the cells were incubated for an additional 24 h. The test compounds were added to the neurons eighteen hours prior to the OGD induction and maintained for 1 h. Replicate cultures were treated as described above with MK801 as positive control of neuroprotection.
Compound neuroprotective potential was determined by HCS analysis, which included the following endpoints: plasma membrane integrity, cell viability, alterations of mitochondrial membrane potential, caspase 3/7 activation and neurite outgrowth.
(§1) To determine the integrity of the plasma membrane, supernatants were collected 24 h after treatments and LDH assay was performed following manufacturer's instructions.
(§2) Cell number was determined by hoechst 33342 nucleic acid staining. This dye allows a sensitive cell number determination by fluorescence microscopy. Cells were stained with 5 μg/ml, washed 3 times and measured at 380 nm/460 nm Ex/Em.
Mitochondrial activity was determined using TMRM, a lipophilic cationic fluorescent probe that freely crosses the plasma membrane and accumulates within mitochondria, depending on their membrane potential. Cells were stained with 50 nM tetramethyl rhodamine methyl ester-TMRM, washed 3 times and measured at 555 nm/645 nm Ex/Em. TMRM fluorescence intensity in cytosolic regions around the nucleus was registered. […]

The next data set has as its system mouse cardiomyocytes. Format: cell-based. Particulars: NAC 100 μM. How it is done: In vitro ischemic injury was induced in mouse neonatal primary cardiomyocyte culture by oxygen-glucose deprivation for 18 hours. Cardiomyocytes were incubated with two concentrations of the compounds during 4 hours prior to the OGD induction. The test compounds were also present during the OGD insult and 24 h-recovery period. NAC was used as positive control of cardioprotection. After treatments, cell viability was measured with WST-8 and ATP, and supernatants were collected to measure LDH for studying plasma membrane integrity. Cells were simultaneously loaded with two fluorescent dyes showing optical compatibility, and were then analyzed with BD Pathway 855 (Becton Dickinson). By using the technology of HCS, cell parameters associated with nuclear morphology and caspase 3/7 activation (indicative of pre-lethal cytotoxic effects and representative of different mechanism of toxicity) were measured at the single cells level, which allows high-throughput screening. Data were expressed as means±SD of three separate wells and individual comparisons were made with Student's test (SigmaPlot 9.0 program).
Primary cultures of cardiomyocytes were prepared from the hearts of Swiss mouse neonates P0-P2. Hearts were removed and enzymatically dissociated following instructions from Neonatal heart Dissociation Kit of Miltenyi Biotec. Then cardiomyocytes were isolated following also the instructions of Miltenyi biotec. Briefly, cells were isolated by depletion of non-target cells. Non-target cells (fibroblasts and endothelial cells) are directly magnetically labeled with a cocktail of monoclonal antibodies conjugated with MACS microbeads. The magnetically labeled non-target cells were depleted by retaining them within an MCS column in the magnetic fields of a MACS separator, while the unlabeled cardiomyocytes passed through the column. Then, cardiomyocytes were counted and plated on fibronectin-coated wells with cardiac myocyte complete medium (1% CMGS component, 1% penicillin/streplomycina and 5% FBS).
Cardiomyocytes from P0-P2 days mice were plated in fibronectin coated 96-well plates with a number of 30.000 cells per well. Cells were maintained in cardiac myocyte complete medium (Cardiac myocyte medium, growth factors, 5% FBS, 1% penicillin/streptomycin) for 1 day at 37° C. in a humidified 5% CO2 atmosphere. At day 2, cells were washed and treated with compounds in complete medium 4 h prior to being subjected to oxygen glucose deprivation for 18 hours at 37° C. The cultures were placed in an aerobic chamber (Billops-Rothenberg) and incubated with DMEM medium lacking glucose and growth factors, and aerated with an anaerobic gas mix (94.7% N2, 5% CO2, 0.3% O2) to remove residual oxygen. Control cells were kept in the original cardiac myocyte medium but under anaerobic conditions. At the end of the OGD insult the cells were removed from the anaerobic chamber, the OGD medium was replaced with cardiac myocyte medium containing glucose without growth factors, and the cells were incubated for additional 24 h. The test compounds were also present during the OGD insult and the recovery period. Some cells were treated as described above with NAC 100 μM as positive control of cardioprotection.
as §1, §2
Caspase 3/7 activation was determined using The CellEvent® Caspase-3n Green Detection Reagent which is intrinsically a non-fluorescent peptide that inhibits the ability of the dye to bind to DNA. However, after […] activation in apoptotic cells, the peptide is cleaved allowing the dye to bind to DNA producing a bright, fluorogenic response. […]

A further data set in a line: physchem. The note with it: 20 °C, thermodynamic from solid.
The test system of data set [3] is male Syrian Golden Hamsters. How it is done: Twenty-four (24) male Syrian Golden Hamsters were used in the study. Mucositis was induced by giving an acute radiation dose of 40 Gy directed to the left buccal cheek pouch on Day 0. Mucositis was evaluated clinically starting on Day 6 and continuing on alternate days until Day 28.
Mucositis was scored visually by comparison to a validated photographic scale, ranging from 0 for normal, to 5 for severe ulceration (clinical scoring). In descriptive terms, this scale is defined as described in Table 7 below: […]
A mucositis score of 3 or greater indicates ulcerative mucositis, a clinically significant threshold.
Statistical significance of observed differences was calculated using chi-squared analysis.
An analysis of the severity of mucositis was performed using the Mann-Whitney rank sum analysis to compare the visual mucositis scores for Groups 2 and 3 to the vehicle control group (Group 1) on each day of the analysis. In this analysis, 2 consecutive days of significant reduction in the mucositis score are generally required before it is regarded as clinically meaningful.
The significance of group differences observed in daily mucositis scores was determined using the Mann-Whitney rank sum test. This nonparametric statistic is appropriate for the visual mucositis scoring scale. The p-values for each calculation are shown. “x” denotes significant difference in mucositis scores. “y” denotes increase in comparison to vehicle Group (improvement). “z” denotes decrease.
“y” denotes an increase in comparison to vehicle Group, “z” denotes decrease (improvement).

[4] abbreviates: Examples 10, 11, 12.5-800 μg/mL, procedure of Example 9.
Setting [5] is: entire study duration, of 192 animal days.

≈ marks a conversion by molar mass, not a printed value. Read-outs that look alike come from different tables or passages of the source.

In the case of `O=C1C(O)=C([C@H]2CC[C@H](c3ccc(Cl)cc3)CC2)C(=O)c2ccccc21` [Atovaquone, trans-2-[4-(4-chlorophenyl)cyclohexyl]-3-hydroxy-1,4-naphthalenedione], the “effect on ROS levels in H2O2 challenged HGEPp cells” value in data set [1] (Example 9, 50, 100, 200 μg/mL, 24 hr pretreatment) is “does not change ROS levels”. In addition, the “effect on proliferation/survival of H2O2-induced oxidatively stressed HGEPp cells” value (“effect on proliferation/survival” for short) in data set [2] (Example 9, all doses tested 12.5-800 μg/mL (each), 24 hr pretreatment, 0.3 mM H2O2 4 h) was “no impact”.

`COc1ccc2cc3[n+](cc2c1OC)CCc1cc2c(cc1-3)OCO2` [Berberine]: in data set [2] (setting [4]), the “effect on proliferation/survival” value is given as “little or no impact”.

As for `OO` [H2O2, hydrogen peroxide], the “reduction in cell number” value in data set [2] (0.3 mM H2O2, 4 h) is listed as 48%.

As to `C[C@]12N[C@H](Cc3ccccc31)c1ccccc12` [MK801], the “normalization of plasma membrane integrity (LDH release)” value in the data set with rat cortical neurons turned out to be 33%. In addition, in the data set on rat cortical neurons (24 h after OGD), the “prevention of OGD-induced apoptosis (caspase 3/7 activation)” value turned out to be 25% and the “prevention of OGD-induced mortality (cell number, hoechst 33342)” value is on record as 26%. The “re-establishment of mitochondrial membrane potential (TMRM)” value in the data set with rat cortical neurons (24 hours post-exposure) is on record as 13%. The “re-establishment of neurite outgrowth affected by OGD” value with rat cortical neurons (average length, beta III tubulin) amounted to 94%. In the data set with rat cortical neurons (Table 16), the CASPASE score is 1 (1 (variation 20-40%)), the “HOECHST score (cell number)” value is 1 (1 (variation 20-40%)), the LDH score is given as 1 (1 (variation 20-40%)) and the Neurite score is 3 (3 (variation 60-100%)). Besides, in the data set on rat cortical neurons (Table 16), the Neuroprotection degree result is recorded as “moderate (moderate (5-7))”, the TMRM score is recorded as 0 (0 (no neuroprotection or variation lower than 20%)) and the “Total (sum of individual scores)” value is 6.

In the case of `CN(C)C(=N)N=C(N)N` [Metformin], the “effect on proliferation/survival” value in data set [2] (setting [4]) is listed as “little or no impact”.

Regarding `CC(=O)N[C@@H](CS)C(=O)O` [NAC], in the data set with mouse cardiomyocytes, the “normalization of OGD-induced LDH release” value came to 26%, the “prevention of OGD-induced apoptosis (caspase 3/7)” value stood at 31% and the “protection against OGD-induced reduction in ATP levels” value stood at 21%. For the same molecule, the “prevention of OGD-induced mortality (cell number)” value in the data set on mouse cardiomyocytes (24 h after exposure) was found to be 21%. Moreover, in the data set on mouse cardiomyocytes (Table 18), the ATP score is on record as 1 (1 (variation 20-40%)), the CASPASE score is given as 1 (1 (variation 20-40%)), the “HOECHST score (cell number)” value is listed as 1 (1 (variation 20-40%)) and the LDH score is 1 (1 (variation 20-40%)). Further, in the data set on mouse cardiomyocytes (Table 18), the Neuroprotection degree result is on record as “Moderate” and the “Total (sum of individual scores)” value was 4.

As for `Cc1c(-c2cnccn2)ssc1=S` [Neat oltipraz, 4-methyl-5-(pyrazin-2-yl)-3H-1,2-dithiole-3-thione], the “effect on ROS levels in H2O2 treated HGEPp cells” value in data set [1] (Example 7, 100 ug/ml and 200 ug/ml, 24 h pretreatment, P<0.05 versus PC) is “significantly reduced ROS levels”. Besides, the “effect on H2O2-induced decrease in HGEPp survival” value in data set [2] (Example 7, 50 to 800 μg/ml, 24 h pretreatment, then 0.3 mM H2O2 4 h) is “promoted cell proliferation and reduced H2O2-induced decrease in HGEPp survival”. Further, the solubility was 15.8 µg/mL (≈ 69.8 µM) in “physchem” (2% simulated intestinal fluid, fassgf or other biorelevant) and 3.1 µg/mL (≈ 13.7 µM) in “physchem” (water). In addition, in data set [3] (40 Gy Day 0, 5 mg/mL, 0.2 mL topical BID, Days −3 to 28), the “day of peak mean mucositis score” value amounted to 16 days. For the same molecule, the “peak mean mucositis score” value in data set [3] (40 Gy Day 0, 5 mg/mL, 0.2 mL topical to left cheek pouch BID, Days −3 to 28) was found to be 3.25±0.11. The “Percent Ulceration by Day (Score ≥3)” value was found to be 0.0% in data set [3] (Day 6); 0.0% in data set [3] (Day 8); 0.0% in data set [3] (Day 10); 50.0% in data set [3] (Day 12); 100.0% in data set [3] (Day 14); 100.0% in data set [3] (Day 16). Moreover, the “Percent Ulceration by Day (Score ≥3)” value in data set [3] (Day 18) is given as 100.0%; in data set [3] (Day 20) it was 100.0%; in data set [3] (Day 22), 100.0%; in data set [3] (Day 24), 50.0%; in data set [3] (Day 26) it was 25.0%; in data set [3] (Day 28), 25.0%. In addition, the “% Days ≥3” value in data set [3] (entire study duration) came to 54.17%. Moreover, the “Days <3 (animal days with mucositis score <3)” value in data set [3] (setting [5]) is on record as 88. In addition, the “Days ≥3 (animal days with mucositis score ≥3)” value in data set [3] (setting [5]) came out at 104.
